ChEMBL document CHEMBL1201862, “PubChem BioAssay data set” (2004)
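Method: 48-hour compound exposure of cells in 96-well plates, five concentrations, linear interpolation of endpoints. The concentration for 50% growth inhibition is given as GI50.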 The source made the active and inactive calls. No stated cut-off is given here; in the data, active = GI50 up to about 1.1 µM and inactive = higher.

Key:
Test in all cases: growth of human tumour cells (NCI), 48 h
NCI-H522 = test system: NCI-H522
HCT-15 = test system: HCT-15
SF-295 = test system: SF-295
T47D = test system: T47D
DU-145 = test system: DU-145
HCT-116 = test system: HCT-116
SF-539 = test system: SF-539
OVCAR-4 = test system: OVCAR-4
CCRF-CEM = test system: CCRF-CEM
EKVX = test system: EKVX
HL-60 = test system: HL-60
HT-29 = test system: HT-29
HOP-92 = test system: HOP-92
CAKI-1 = test system: CAKI-1
Malme-3M = test system: Malme-3M
SN12C = test system: SN12C
SK-OV-3 = test system: SK-OV-3
SW-620 = test system: SW-620
HCC 2998 = test system: HCC 2998
UO-31 = test system: UO-31

| Compound | GI50 (NCI-H522) | GI50 (HCT-15) [µM] | GI50 (SF-295) | GI50 (T47D) | GI50 (DU-145) | GI50 (HCT-116) | GI50 (SF-539) | GI50 (OVCAR-4) | GI50 (CCRF-CEM) | GI50 (EKVX) | GI50 (HL-60) | GI50 (HT-29) | GI50 (HOP-92) | GI50 (CAKI-1) | GI50 (Malme-3M) | GI50 (SN12C) | GI50 (SK-OV-3) | GI50 (SW-620) | GI50 (HCC 2998) | GI50 (UO-31) |
| --- | --- | --- | --- | --- | --- | --- | --- | --- | --- | --- | --- | --- | --- | --- | --- | --- | --- | --- | --- | --- |
| O=C(Nc1ccc(-c2cn3ccccc3n2)cc1)c1cc(Br)ccc1O | > 100 µM (inactive) | > 100 | > 100 µM (inactive) | > 100 µM (inactive) | > 100 µM (inactive) | > 100 µM (inactive) | > 100 µM (inactive) | > 100 µM (inactive) | > 100 µM (inactive) | > 100 µM (inactive) | > 100 µM (inactive) | > 100 µM (inactive) | > 100 µM (inactive) | > 100 µM (inactive) | > 100 µM (inactive) | > 100 µM (inactive) | > 100 µM (inactive) | > 100 µM (inactive) | – | – |
| O=C1C/C(=N/c2ccc(Cl)cc2)C(c2ccccc2)N1c1ccccc1 (centres undefined) | 1.64 µM (inactive) | 5.92 | 8.61 µM (inactive) | 1.38 µM (inactive) | 6.61 µM (inactive) | 8.89 µM (inactive) | 14 µM (inactive) | 14.3 µM (inactive) | – | > 100 µM (inactive) | 2.96 µM (inactive) | 5.62 µM (inactive) | 10.3 µM (inactive) | 1.59 µM (inactive) | 19.5 µM (inactive) | 23.9 µM (inactive) | 5.92 µM (inactive) | 10.2 µM (inactive) | > 100 µM (inactive) | 5.41 µM (inactive) |
| CC(=O)N(C)C(C(=O)N1CC(C)CC1C(=O)N(C)C1C(=O)NC(CC(C)C)C(=O)N2CC(C)CC2C(=O)NC(CC(C)C)C(=O)N(C)C(C(C)C)C(=O)N2CCCC2C(=O)N(C)C(CC(C)C)C(=O)NCC(=O)OC1C)C(C)C (centres undefined) | > 100 µM (inactive) | > 100 | > 100 µM (inactive) | > 100 µM (inactive) | > 100 µM (inactive) | > 100 µM (inactive) | > 100 µM (inactive) | > 100 µM (inactive) | > 100 µM (inactive) | > 100 µM (inactive) | > 100 µM (inactive) | > 100 µM (inactive) | > 100 µM (inactive) | > 100 µM (inactive) | – | > 100 µM (inactive) | > 100 µM (inactive) | > 100 µM (inactive) | > 100 µM (inactive) | > 100 µM (inactive) |
| Cc1c(C(=O)O)n2cnnc2c2ccccc12 | > 100 µM (inactive) | > 100 | > 100 µM (inactive) | > 100 µM (inactive) | > 100 µM (inactive) | > 100 µM (inactive) | > 100 µM (inactive) | > 100 µM (inactive) | > 100 µM (inactive) | > 100 µM (inactive) | > 100 µM (inactive) | > 100 µM (inactive) | > 100 µM (inactive) | > 100 µM (inactive) | – | > 100 µM (inactive) | > 100 µM (inactive) | > 100 µM (inactive) | > 100 µM (inactive) | > 100 µM (inactive) |
| Cc1cc(CC(O)(C(F)(F)F)C(F)(F)F)cc(CC(O)(C(F)(F)F)C(F)(F)F)n1 | 2.36 µM (inactive) | 4.08 | 3.06 µM (inactive) | 2.67 µM (inactive) | 2.74 µM (inactive) | 2.34 µM (inactive) | 3.43 µM (inactive) | 3.47 µM (inactive) | 3.21 µM (inactive) | 2.89 µM (inactive) | 3.02 µM (inactive) | 2.58 µM (inactive) | 2.55 µM (inactive) | > 100 µM (inactive) | 1.56 µM (inactive) | 3.1 µM (inactive) | – | > 100 µM (inactive) | 4.23 µM (inactive) | 2.05 µM (inactive) |
| COc1ccc(/C(Br)=C2\OC(=O)c3ccccc32)cc1 | > 10 µM (inactive) | > 10 | > 10 µM (inactive) | > 10 µM (inactive) | > 10 µM (inactive) | > 10 µM (inactive) | > 10 µM (inactive) | > 10 µM (inactive) | > 10 µM (inactive) | > 10 µM (inactive) | > 10 µM (inactive) | > 10 µM (inactive) | > 10 µM (inactive) | > 10 µM (inactive) | – | > 10 µM (inactive) | > 10 µM (inactive) | > 10 µM (inactive) | > 10 µM (inactive) | > 10 µM (inactive) |
| COc1cc(/C=C/c2nc(N)nnc2C)cc(OC)c1OC | 2.43 µM (inactive) | 4.04 | 29.2 µM (inactive) | 12.1 µM (inactive) | > 57 µM (inactive) | 9.89 µM (inactive) | – | 27.9 µM (inactive) | 6 µM (inactive) | 18.1 µM (inactive) | 3.03 µM (inactive) | 10.6 µM (inactive) | 16.6 µM (inactive) | 6.56 µM (inactive) | 13.6 µM (inactive) | > 70 µM (inactive) | 31.5 µM (inactive) | > 57.8 µM (inactive) | 9.86 µM (inactive) | 4.71 µM (inactive) |
| CC(C)(C)OC(=O)N1C(C2=COc3ccccc3O2)=COc2ccccc21 | 16 µM (inactive) | 31.2 | 26.9 µM (inactive) | 11.5 µM (inactive) | 28 µM (inactive) | 23.9 µM (inactive) | 19.3 µM (inactive) | 36.8 µM (inactive) | – | 16.8 µM (inactive) | 19 µM (inactive) | 32 µM (inactive) | 19.6 µM (inactive) | 38 µM (inactive) | 22.9 µM (inactive) | 26.6 µM (inactive) | 29 µM (inactive) | 24.3 µM (inactive) | 16.2 µM (inactive) | 30 µM (inactive) |
| COC(=O)c1cc(C)ccc1C1CN=NC12Cc1cccc(C)c1C2=O (centres undefined) | 21.3 µM (inactive) | 27.6 | 36.1 µM (inactive) | 12.3 µM (inactive) | 42.5 µM (inactive) | 23.8 µM (inactive) | 51.6 µM (inactive) | 25.5 µM (inactive) | 29.3 µM (inactive) | 23 µM (inactive) | 12.7 µM (inactive) | 36 µM (inactive) | 30.5 µM (inactive) | 43.3 µM (inactive) | 24.2 µM (inactive) | 43.9 µM (inactive) | – | 38.4 µM (inactive) | 37.9 µM (inactive) | 38.9 µM (inactive) |
| CC(=O)/C=C1\Nc2ccc([N+](=O)[O-])cc2N\C1=C/C(C)=O | 16 µM (inactive) | 33.4 | 42.2 µM (inactive) | 33.8 µM (inactive) | 80.5 µM (inactive) | 28.8 µM (inactive) | 46.6 µM (inactive) | 44.7 µM (inactive) | 17.2 µM (inactive) | 42.4 µM (inactive) | 56.6 µM (inactive) | 54 µM (inactive) | 28.4 µM (inactive) | 58.2 µM (inactive) | 25.7 µM (inactive) | 28.7 µM (inactive) | 90.8 µM (inactive) | 64.6 µM (inactive) | – | > 100 µM (inactive) |
| CC(C)(O)c1cc2c(cc1C(C)(C)O)-c1ccccc1-2 | > 100 µM (inactive) | > 100 | 67.1 µM (inactive) | > 100 µM (inactive) | > 100 µM (inactive) | – | > 100 µM (inactive) | > 100 µM (inactive) | > 100 µM (inactive) | 59.7 µM (inactive) | > 100 µM (inactive) | – | 17.9 µM (inactive) | > 100 µM (inactive) | > 100 µM (inactive) | > 100 µM (inactive) | – | > 100 µM (inactive) | > 100 µM (inactive) | – |
| COc1cc(-c2cn(S(=O)(=O)c3ccc(C)cc3)c3ccccc23)nc(-c2cn(S(=O)(=O)c3ccc(C)cc3)c3ccccc23)n1 | 0.239 µM (active) | 0.592 | 0.432 µM (active) | > 100 µM (inactive) | 0.625 µM (active) | 0.385 µM (active) | 0.222 µM (active) | 1.99 µM (inactive) | 12.2 µM (inactive) | 0.783 µM (active) | 2.19 µM (inactive) | 0.573 µM (active) | 4.98 µM (inactive) | 1.3 µM (inactive) | – | 1.85 µM (inactive) | 2.25 µM (inactive) | 2.9 µM (inactive) | 0.516 µM (active) | 0.968 µM (active) |
| O=C1c2cc3ccccc3cc2C2(c3ccc(Cl)cc3)N[C@H]3CCCC[C@@H]3N12 (some centres undefined) | – | 21.6 | 13.8 µM (inactive) | 7.4 µM (inactive) | 17.9 µM (inactive) | 5.68 µM (inactive) | 10.1 µM (inactive) | 6.34 µM (inactive) | 48 µM (inactive) | 10.9 µM (inactive) | 13.6 µM (inactive) | 14.4 µM (inactive) | 27.8 µM (inactive) | 22.6 µM (inactive) | 15.1 µM (inactive) | 16.6 µM (inactive) | 14.6 µM (inactive) | 17.4 µM (inactive) | – | 18.3 µM (inactive) |
| COc1ccc2c(CCN)c(C(=O)O)[nH]c2c1 | > 100 µM (inactive) | > 100 | > 100 µM (inactive) | > 100 µM (inactive) | > 100 µM (inactive) | > 100 µM (inactive) | > 100 µM (inactive) | > 100 µM (inactive) | – | > 100 µM (inactive) | > 100 µM (inactive) | > 100 µM (inactive) | > 100 µM (inactive) | > 100 µM (inactive) | > 100 µM (inactive) | > 100 µM (inactive) | > 100 µM (inactive) | > 100 µM (inactive) | > 100 µM (inactive) | > 100 µM (inactive) |
| Cc1ccc(/C=C2\Sc3scc(-c4ccccc4)[n+]3C2=O)cc1 | 3.4 µM (inactive) | 19.8 | 24.6 µM (inactive) | 48.3 µM (inactive) | 24.7 µM (inactive) | 21.2 µM (inactive) | 22.3 µM (inactive) | 29 µM (inactive) | 13.6 µM (inactive) | 19.3 µM (inactive) | 2.69 µM (inactive) | 24.7 µM (inactive) | 15.4 µM (inactive) | – | – | 21.4 µM (inactive) | 44.2 µM (inactive) | 20.6 µM (inactive) | 27.7 µM (inactive) | 14.5 µM (inactive) |
